Target: T1, human DGAT2 (Homo sapiens, UniProt Q96PD7)
T1 construct: FLAG (DYKDDDDK); made in house; host or cells: Sf-21 insect cells (BacPAK baculovirus system); membrane fraction used
T1 sequence (Q96PD7 1-388): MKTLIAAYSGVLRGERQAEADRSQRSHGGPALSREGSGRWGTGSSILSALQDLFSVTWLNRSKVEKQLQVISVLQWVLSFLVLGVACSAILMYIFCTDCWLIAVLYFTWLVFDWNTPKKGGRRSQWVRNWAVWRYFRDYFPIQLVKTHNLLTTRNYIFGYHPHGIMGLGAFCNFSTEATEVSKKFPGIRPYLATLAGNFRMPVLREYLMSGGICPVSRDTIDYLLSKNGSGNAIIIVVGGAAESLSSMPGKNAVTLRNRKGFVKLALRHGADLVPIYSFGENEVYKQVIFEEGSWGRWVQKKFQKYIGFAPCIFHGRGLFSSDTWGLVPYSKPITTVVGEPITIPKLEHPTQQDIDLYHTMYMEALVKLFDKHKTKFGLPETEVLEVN
Experiment: DGAT2 enzyme activity inhibition, Phospholipid FlashPlate SPA
Format: biochemical
Details: recombinant human DGAT2 membrane protein from Sf-21 cells; inhibition of [14C]-TG production; 37° C.
Method: In order to prepare the pBacPAK9-DGAT2, which is DGAT2 expression vector, the human DGAT2 gene amplified by polymerase chain reaction (PCR) was cloned into the EcoR1 and Xho1 sites of the pBacPAK9 (clonctech) vector. The nucleotide sequence of the primers used in PCR was the forward primer 5′ […] (SEQ. ID. NO: 2). The composition of the reaction solution was to contain 50 ng of cDNA clone (OriGene), 200 μM of dATP, dCTP, dTTP, dGTP, 200 nM of each primer, 1 unit of Tag DNA Polymerase (Toyobo), 1×PCR buffer, and the final volume was adjusted to 20 μl. The reaction conditions were denatured at 95° C. for 5 minutes, followed by 30 times of 94° C. for 20 seconds, 60° C. for 20 seconds, and 72° C. for 90 seconds, followed by further reaction at 72° C. for 7 minutes.
Recombinant human DGAT2 protein was expressed in Sf-21 cells, which are insect cells, by using the BacPack baculovirus expression system (Clontech). The brief manufacturing process is as follows. First, the pBacPAK9-DGAT2 expression vector was transfected with BacPAK6 virus DNA (Bsu36I digest) into sf21 cells using Bacfectin to prepare a recombinant DGAT2 expressing baculovirus. The thus prepared baculovirus was infected with Sf-21 cells at 10 MOI (multiplicity of infection), and after 72 hours, infected insect cells were collected and membrane proteins were isolated. For membrane protein separation, the cell pellet was dissolved in a sucrose solution containing 250 mM sucrose, 10 mM Tris (pH 7.4), and 1 mM ethylenediamine-tetraacetic acid (EDTA), and then homogenized by using a dounce homogenizer, and the supernatant was taken by centrifuging at 600×g for 15 minutes, and centrifuged at 100,000×g for 1 hour to discard the supernatant, and the remaining pellet was resuspended in 20 mM HEPES buffer (pH 7.4). The prepared DGAT2 overexpressing membrane protein was dispensed in 100 μl and stored at −80° C. until use. Protein concentration was quantified by using the BCA Protein Assay Kit (Thermo Scientific).
In vitro DGAT2 analysis was performed using a Phospholipid Flash Plate (PerkinElmer) based on the principle of SPA (Scintilation Proximity Assay). First, DGAT2 inhibition compounds serially diluted 5 times from 3 nM to 10 μM (final concentration, 1% DMSO) were mixed in a buffer solution containing 2 μg DGAT2-membrane protein and 20 mM HEPES, 20 mM MgCl2, 1 mg/mL BSA, 50 μM 1,2 sn-oleoyl glycerol (Sigma), put in a 96-well flash plate (FlashPlate) and reacted at 37° C. for 20 minutes, and then 1 μM [14C] ole oil CoA (PerkinElmer, NEC651050UC) was added to be a final volume of 100 μL and further reacted at 37° C. for 15 minutes. After the enzymatic reaction was completed, 100 μL of isopropanol was added, the plate was sealed with a film, and the plate was shaken slowly in a plate shaker. The next day, the amplified scintillation signal (cpm) in Topcounter (Packard) was measured to measure the degree of production of [14C]-labeled triacyl glycerol (TG) as a reaction product. The measured value when the compound was not treated was used as a positive control, and the measured value of the compound treated group was calculated as a relative % to measure the inhibition effect of the compound on TG production.

IC50 | SMILES
130 nM | CCOc1ccccc1O[C@@H]1CCCN(c2cncc(Nc3cccc(N4CCC(C(=O)O)CC4)n3)n2)C1 [Example 56, (R)-1-(6-((6-(3-(2-ethoxyphenoxy)piperidin-1-yl)pyrazin-2-yl)amino)pyridin-2-yl)piperidine-4-carboxylic Acid]
1700 nM | CCOc1ccccc1O[C@@H]1CCCN(c2cncc(Nc3cc[nH]n3)n2)C1 [Example 19, (R)-6-(3-(2-ethoxyphenoxy)piperidin-1-yl)-N-(1H-pyrazol-3-yl)pyrazin-2-amine]
300 nM | CCOc1ccccc1O[C@@H]1CCCN(c2cncc(Nc3cccc(-c4cnn(CC(C)(C)C(=O)O)c4)n3)n2)C1 [Example 86, (R)-3-(4-(6-((6-(3-(2-ethoxyphenoxy)piperidin-1-yl)pyrazin-2-yl)amino)pyridin-2-yl)-1H-pyrazol-1-yl)-2,2-dimethylpropanoic Acid]
170 nM | CCOc1ccccc1O[C@@H]1CCCN(c2cncc(Nc3cc(C(F)(F)F)cc(-c4cccc(CC(C)(C)C(=O)O)c4)n3)n2)C1 [Example 110, (R)-3-(3-(6-((6-(3-(2-ethoxyphenoxy)piperidin-1-yl)pyrazin-2-yl)amino)-4-(trifluoromethyl)pyridin-2-yl)phenyl)-2,2-dimethylpropanoic Acid]
5500 nM | CCOc1ccccc1O[C@@H]1CCCN(c2cncc(Nc3ccccc3)n2)C1 [Example 24, (R)—N-6-(3-(2-ethoxyphenoxy)piperidin-1-yl)-N-phenylpyrazin-2-amine]
83 nM | CCOc1ccccc1O[C@@H]1CCCN(c2cncc(Nc3cccc(Oc4cccc(CC(=O)O)c4)n3)n2)C1 [Example 95, (R)-2-(3-((6-((6-(3-(2-ethoxyphenoxy)piperidin-1-yl)pyrazin-2-yl)amino)pyridin-2-yl)oxy)phenyl)acetic Acid]
170 nM | CCOc1cccnc1O[C@@H]1CCCN(c2cncc(Nc3nc(-c4cccc(OC(C)(C)C(=O)O)c4)ccc3F)n2)C1 [Example 104, (R)-2-(3-(6-((6-(3-((3-ethoxypyridin-2-yl)oxy)piperidin-1-yl)pyrazin-2-yl)amino)-5-fluoropyridin-2-yl)phenoxy)-2-methylpropanoic Acid]
1200 nM | CCOc1cccnc1O[C@@H]1CCCN(c2cncc(Nc3cccc(Oc4ccc(C(=O)O)cc4)n3)n2)C1 [Example 90, (R)-4-((6-((6-(3-((3-ethoxypyridin-2-yl)oxy)piperidin-1-yl)pyrazin-2-yl)amino)pyridin-2-yl)oxy)benzoic Acid]
980 nM | CCOc1cccnc1O[C@@H]1CCCN(c2cncc(Nc3cccc(-c4ccc(NCC(=O)O)cc4)n3)n2)C1 [Example 74, (R)-(4-(6-((6-(3-((3-ethoxypyridin-2-yl)oxy)piperidin-1-yl)pyrazin-2-yl)amino)pyridin-2-yl)phenyl)glycine]
> 10000 nM | CCOc1ccccc1O[C@@H]1CCCN(c2cncc(Nc3cncc(-c4cccc(CC(C)(C)C(=O)O)c4)c3)n2)C1 [Example 47, (R)-3-(3-(5-((6-(3-(2-ethoxyphenoxy)piperidin-1-yl)pyrazin-2-yl)amino)pyridin-3-yl)phenyl)-2,2-dimethylpropanoic Acid]
71 nM | CCOc1ccccc1O[C@@H]1CCCN(c2cncc(Nc3cccc(-c4cccc(CC(C)(C)C(=O)O)c4)n3)n2)C1 [Example 63, (R)-3-(3-(6-((6-(3-(2-ethoxyphenoxy)piperidin-1-yl)pyrazin-2-yl)amino)pyridin-2-yl)phenyl)-2,2-dimethylpropanoic Acid]
64 nM | CCOc1cccnc1O[C@@H]1CCCN(c2cncc(Nc3ncc(C(F)(F)F)c(-c4cccc(CC(C)(C)C(=O)O)c4)n3)n2)C1 [Example 165, (R)-3-(3-(2-((6-(3-((3-ethoxypyridin-2-yl)oxy)piperidin-1-yl)pyrazin-2-yl)amino)-5-(trifluoromethyl)pyrimidin-4-yl)phenyl)-2,2-dimethylpropanoic Acid]
